Laboratory results from article PMC10507085, “Pharmacological inhibition of TBK1/IKKε blunts immunopathology in a murine model of SARS-CoV-2 infection” (Nature Communications, 2023).

Columns and labels:
Assay in all cases: biochemical
Design in all cases: KINOMEscan competition binding, DNA-tagged kinase against immobilised ligand, qPCR read-out
Conditions in all cases: read-out: Percent Control
STK11 = STK11 (Homo sapiens, UniProt Q15831)
[1] = target: T1, TYK2(JH2domain-pseudokinase) (Homo sapiens, UniProt P29597)
T1 construct: JH2 domain pseudokinase

MAP2K4 = MAP2K4 (Homo sapiens, UniProt P45985)
MAK = MAK (Homo sapiens, UniProt P20794)
RIOK2 = RIOK2 (Homo sapiens, UniProt Q9BVS4)
MAP3K5 = MAP3K5 (Homo sapiens, UniProt Q99683)
Sequence of MAP3K5 (Q99683 whole entry): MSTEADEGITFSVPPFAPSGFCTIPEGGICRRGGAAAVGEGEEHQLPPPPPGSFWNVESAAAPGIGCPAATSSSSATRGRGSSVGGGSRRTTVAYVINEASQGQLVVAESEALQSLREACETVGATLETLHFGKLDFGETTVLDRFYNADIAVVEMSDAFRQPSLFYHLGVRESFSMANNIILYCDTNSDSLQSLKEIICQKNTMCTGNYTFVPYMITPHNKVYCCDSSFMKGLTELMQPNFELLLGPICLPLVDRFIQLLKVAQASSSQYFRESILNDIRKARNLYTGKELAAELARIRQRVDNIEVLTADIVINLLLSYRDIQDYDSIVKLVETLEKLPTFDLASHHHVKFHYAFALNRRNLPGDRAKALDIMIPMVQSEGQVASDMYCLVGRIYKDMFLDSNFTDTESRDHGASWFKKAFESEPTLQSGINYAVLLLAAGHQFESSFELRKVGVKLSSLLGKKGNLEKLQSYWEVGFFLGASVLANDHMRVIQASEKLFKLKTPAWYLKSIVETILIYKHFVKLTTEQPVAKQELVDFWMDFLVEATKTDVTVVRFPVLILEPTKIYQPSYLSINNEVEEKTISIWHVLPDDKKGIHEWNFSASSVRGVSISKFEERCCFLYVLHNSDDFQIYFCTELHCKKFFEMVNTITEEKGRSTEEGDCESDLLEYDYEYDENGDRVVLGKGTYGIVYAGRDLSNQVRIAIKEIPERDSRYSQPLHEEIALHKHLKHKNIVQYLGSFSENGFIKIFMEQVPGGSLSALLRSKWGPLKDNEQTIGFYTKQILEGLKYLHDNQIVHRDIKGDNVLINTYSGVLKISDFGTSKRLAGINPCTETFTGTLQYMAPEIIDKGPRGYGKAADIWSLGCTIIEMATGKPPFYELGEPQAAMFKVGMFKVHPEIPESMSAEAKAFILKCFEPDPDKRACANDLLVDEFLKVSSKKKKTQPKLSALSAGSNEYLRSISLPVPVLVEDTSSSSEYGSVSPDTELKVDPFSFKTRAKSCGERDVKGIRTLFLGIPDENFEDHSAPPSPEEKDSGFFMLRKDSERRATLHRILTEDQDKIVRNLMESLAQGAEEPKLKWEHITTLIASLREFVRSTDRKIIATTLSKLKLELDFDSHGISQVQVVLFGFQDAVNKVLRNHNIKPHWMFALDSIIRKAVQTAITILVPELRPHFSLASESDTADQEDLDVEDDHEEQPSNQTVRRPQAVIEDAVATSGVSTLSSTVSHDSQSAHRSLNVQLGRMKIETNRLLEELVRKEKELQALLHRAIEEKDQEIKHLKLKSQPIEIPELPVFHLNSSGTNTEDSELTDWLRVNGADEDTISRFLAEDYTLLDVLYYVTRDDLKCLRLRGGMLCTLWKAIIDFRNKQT

CLK1 = CLK1 (Homo sapiens, UniProt P49759)
PIP5K1C = PIP5K1C (Homo sapiens, UniProt O60331)
CDKL2 = CDKL2 (Homo sapiens, UniProt Q92772)
Sequence of CDKL2 (Q92772 whole entry): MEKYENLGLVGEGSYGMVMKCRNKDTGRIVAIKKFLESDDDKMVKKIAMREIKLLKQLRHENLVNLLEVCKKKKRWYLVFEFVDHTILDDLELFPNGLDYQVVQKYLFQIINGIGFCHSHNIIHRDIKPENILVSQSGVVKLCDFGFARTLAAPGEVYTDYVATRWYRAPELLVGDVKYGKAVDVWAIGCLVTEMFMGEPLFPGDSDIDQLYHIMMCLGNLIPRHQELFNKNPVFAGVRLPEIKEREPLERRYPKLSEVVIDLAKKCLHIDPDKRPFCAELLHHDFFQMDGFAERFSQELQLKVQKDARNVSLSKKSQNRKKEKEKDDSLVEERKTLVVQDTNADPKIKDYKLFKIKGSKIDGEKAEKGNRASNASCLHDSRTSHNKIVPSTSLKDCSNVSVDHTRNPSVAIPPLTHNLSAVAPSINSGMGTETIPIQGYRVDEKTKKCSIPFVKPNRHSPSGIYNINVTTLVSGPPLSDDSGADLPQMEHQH

PI4KB = PI4KB (Homo sapiens, UniProt Q9UBF8)
Sequence of PI4KB (Q9UBF8 whole entry): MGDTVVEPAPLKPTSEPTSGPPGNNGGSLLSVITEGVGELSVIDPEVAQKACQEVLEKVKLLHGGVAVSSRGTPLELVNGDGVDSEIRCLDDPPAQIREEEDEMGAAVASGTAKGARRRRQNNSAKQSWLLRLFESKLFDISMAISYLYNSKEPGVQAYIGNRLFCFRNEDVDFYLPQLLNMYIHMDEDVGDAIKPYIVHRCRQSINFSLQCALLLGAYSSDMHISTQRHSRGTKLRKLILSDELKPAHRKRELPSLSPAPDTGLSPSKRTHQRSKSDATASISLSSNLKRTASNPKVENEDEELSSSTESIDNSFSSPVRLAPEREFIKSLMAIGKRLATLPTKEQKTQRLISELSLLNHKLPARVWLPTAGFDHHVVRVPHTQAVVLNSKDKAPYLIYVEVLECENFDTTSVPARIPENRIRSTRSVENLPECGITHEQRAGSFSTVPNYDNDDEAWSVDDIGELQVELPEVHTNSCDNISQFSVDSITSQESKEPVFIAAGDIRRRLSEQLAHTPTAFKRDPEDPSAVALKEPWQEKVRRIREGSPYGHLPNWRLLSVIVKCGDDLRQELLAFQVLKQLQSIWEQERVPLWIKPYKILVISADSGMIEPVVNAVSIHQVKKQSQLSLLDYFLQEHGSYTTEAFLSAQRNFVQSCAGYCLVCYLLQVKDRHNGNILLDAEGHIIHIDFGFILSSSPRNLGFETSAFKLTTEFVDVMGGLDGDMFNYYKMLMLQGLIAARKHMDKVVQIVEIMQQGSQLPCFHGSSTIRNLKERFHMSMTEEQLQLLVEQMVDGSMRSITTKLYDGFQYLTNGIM

EPHB3 = EPHB3 (Homo sapiens, UniProt P54753)
[2] = target: T2, RSK4(Kin.Dom.2-C-terminal) (Homo sapiens, UniProt Q9UK32)
T2 construct: gene RPS6KA6; Kin.Dom.2 C-terminal

SRC = SRC (Homo sapiens, UniProt P12931)
CHEK2 = CHEK2 (Homo sapiens, UniProt O96017)
Sequence of CHEK2 (O96017 whole entry): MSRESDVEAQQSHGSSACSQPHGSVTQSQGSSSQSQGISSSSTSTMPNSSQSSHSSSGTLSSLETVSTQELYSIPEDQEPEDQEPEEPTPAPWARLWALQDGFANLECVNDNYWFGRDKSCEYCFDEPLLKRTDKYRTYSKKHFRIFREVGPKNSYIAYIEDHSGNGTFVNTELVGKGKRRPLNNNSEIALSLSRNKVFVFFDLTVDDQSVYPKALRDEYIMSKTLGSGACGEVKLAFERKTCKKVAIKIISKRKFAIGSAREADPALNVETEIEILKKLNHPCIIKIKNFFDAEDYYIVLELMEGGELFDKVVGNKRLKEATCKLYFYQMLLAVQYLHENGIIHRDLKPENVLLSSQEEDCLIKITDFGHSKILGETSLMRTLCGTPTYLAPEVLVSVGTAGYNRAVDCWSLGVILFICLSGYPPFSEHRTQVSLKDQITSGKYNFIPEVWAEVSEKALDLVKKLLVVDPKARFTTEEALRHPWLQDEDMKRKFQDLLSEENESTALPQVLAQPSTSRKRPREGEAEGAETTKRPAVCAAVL

LATS1 = LATS1 (Homo sapiens, UniProt O95835)
Sequence of LATS1 (O95835 whole entry): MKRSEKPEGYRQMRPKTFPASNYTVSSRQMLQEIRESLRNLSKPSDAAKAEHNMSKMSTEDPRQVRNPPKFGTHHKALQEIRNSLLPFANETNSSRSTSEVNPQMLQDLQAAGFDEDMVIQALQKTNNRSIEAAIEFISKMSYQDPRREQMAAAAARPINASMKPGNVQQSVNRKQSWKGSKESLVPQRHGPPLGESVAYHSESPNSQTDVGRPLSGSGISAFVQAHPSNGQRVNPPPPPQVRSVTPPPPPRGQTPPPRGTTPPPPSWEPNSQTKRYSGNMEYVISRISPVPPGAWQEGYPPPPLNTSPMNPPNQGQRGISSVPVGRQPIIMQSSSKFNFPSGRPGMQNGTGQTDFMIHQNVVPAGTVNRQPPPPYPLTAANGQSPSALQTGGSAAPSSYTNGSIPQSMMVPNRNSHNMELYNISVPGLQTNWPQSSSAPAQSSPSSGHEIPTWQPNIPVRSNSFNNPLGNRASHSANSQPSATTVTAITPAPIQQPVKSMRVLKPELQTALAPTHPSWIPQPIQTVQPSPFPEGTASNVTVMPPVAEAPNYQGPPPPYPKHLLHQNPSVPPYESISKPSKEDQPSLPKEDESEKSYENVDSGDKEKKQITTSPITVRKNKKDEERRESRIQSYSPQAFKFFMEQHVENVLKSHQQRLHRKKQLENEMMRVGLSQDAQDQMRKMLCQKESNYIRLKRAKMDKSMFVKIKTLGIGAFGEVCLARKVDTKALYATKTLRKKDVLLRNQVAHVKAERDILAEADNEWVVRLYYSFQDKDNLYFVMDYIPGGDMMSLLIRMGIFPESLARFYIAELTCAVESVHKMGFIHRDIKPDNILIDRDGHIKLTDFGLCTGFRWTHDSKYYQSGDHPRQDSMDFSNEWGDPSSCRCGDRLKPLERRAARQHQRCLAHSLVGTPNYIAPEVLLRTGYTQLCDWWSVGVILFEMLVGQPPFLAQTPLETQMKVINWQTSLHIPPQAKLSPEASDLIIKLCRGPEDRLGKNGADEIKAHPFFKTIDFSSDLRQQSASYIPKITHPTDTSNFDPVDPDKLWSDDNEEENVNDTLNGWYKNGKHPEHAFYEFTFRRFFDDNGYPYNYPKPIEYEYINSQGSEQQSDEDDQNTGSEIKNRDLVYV

MATK = MATK (Homo sapiens, UniProt P42679)
CDK4-cyclinD1 = CDK4-cyclinD1 (Homo sapiens, UniProt P11802)
TEC = TEC (Homo sapiens, UniProt P42680)
VRK2 = VRK2 (Homo sapiens, UniProt Q86Y07)
CSNK1G3 = CSNK1G3 (Homo sapiens, UniProt Q9Y6M4)

Sequence of STK11 (Q15831 whole entry): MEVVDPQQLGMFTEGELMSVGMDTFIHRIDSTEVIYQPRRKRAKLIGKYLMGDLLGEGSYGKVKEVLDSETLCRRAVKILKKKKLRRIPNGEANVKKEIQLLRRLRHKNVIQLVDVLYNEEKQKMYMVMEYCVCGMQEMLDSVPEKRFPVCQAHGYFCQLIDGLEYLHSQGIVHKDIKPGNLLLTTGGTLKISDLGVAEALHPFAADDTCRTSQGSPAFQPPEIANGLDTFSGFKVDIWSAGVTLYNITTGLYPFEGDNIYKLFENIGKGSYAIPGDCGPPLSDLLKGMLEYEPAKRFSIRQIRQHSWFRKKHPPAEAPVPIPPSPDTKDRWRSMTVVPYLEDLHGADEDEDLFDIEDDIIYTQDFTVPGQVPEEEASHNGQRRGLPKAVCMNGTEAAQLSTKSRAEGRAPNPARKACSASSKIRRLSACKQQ

Oc1ccc(C2=Cc3ccc(O)cc3OC2)cc1 [compound 1, idronoxil]
remaining binding at 10 µM (STK11): 81% | remaining binding at 10 µM [1]: 8.3% | remaining binding at 10 µM (MAP2K4): 91% | remaining binding at 10 µM (MAK): 100% | remaining binding at 10 µM (RIOK2): 82% | remaining binding at 10 µM (MAP3K5): 92% | remaining binding at 10 µM (CLK1): 53% | remaining binding at 10 µM (PIP5K1C): 25% | remaining binding at 10 µM (CDKL2): 100% | remaining binding at 10 µM (PI4KB): 63% | remaining binding at 10 µM (EPHB3): 95% | remaining binding at 10 µM [2]: 76% | remaining binding at 10 µM (SRC): 47% | remaining binding at 10 µM (CHEK2): 67% | remaining binding at 10 µM (LATS1): 100% | remaining binding at 10 µM (MATK): 61% | remaining binding at 10 µM (CDK4-cyclinD1): 94% | remaining binding at 10 µM (TEC): 93% | remaining binding at 10 µM (VRK2): 67% | remaining binding at 10 µM (CSNK1G3): 100%
